Where a name gives a salt, the structure may show the parent alone. Read-outs that look alike come from different tables or passages of the source.
System: dopaminergic neurons
Protocol: RNAs isolated from NSCs and neurons with and without drug treatments were hybridized to Illumina HumanRef-8 BeadChip (Illumina, Inc., San Diego, Calif., performed by Microarray core facility at the Burnham Institute for Medical Research). The Illumina array data were normalized by the quantile method, and then transformed log 2 ratio values for a zero mean for expression values of each gene across all samples. The statistical and bioinformatics analyses were conducted by using R and the bioconductor package (www.bioconductor.org). The gene set enrichment analysis was conducted using the GSEA software (www.broad.mit.edu/gsea).

[1] = Amiloride sensitive Na channels, 4 hours of exposure
[2] = Amine transporters, 4 hours of exposure
[3] = Ca activated K channels, 4 hours of exposure
[4] = Calcium channels, 4 hours of exposure
[5] = Cl channels, 4 hours of exposure
[6] = Delayed rectifier K channels, 4 hours of exposure
[7] = H ion transporters, 4 hours of exposure
[8] = Rectifier K channels, 4 hours of exposure
[9] = Voltage gated Na channels, 4 hours of exposure

`CCCCc1oc2ccccc2c1C(=O)c1cc(I)c(OCCN(CC)CC)c(I)c1` [Amiodarone Hydrochloride] was tested. Which “ACCN1 gene expression, Treated DA Neuron” value [1] did it give?
Its value is 387.4.

What about the “ACCN2 gene expression, Treated DA Neuron” value [1] of the same compound?
Its value is 862.7.

What about the “ACCN3 gene expression, Treated DA Neuron” value [1] of the same compound?
Its value is 35.7.

What about the “SLC1A2 gene expression, Treated DA Neuron” value [2] of the same compound?
Its value is 809.7.

What about the “SLC1A3 gene expression, Treated DA Neuron” value [2] of the same compound?
The value was 2926.

And the “SLC6A3 gene expression, Treated DA Neuron” value [2]?
Its value is 23.4.

What about the “SLC6A9 gene expression, Treated DA Neuron” value [2] of the same compound?
The value was 36570.5.

And the “SLC6A12 gene expression, Treated DA Neuron” value [2]?
Its value is 10.8.

And the “ATP1A1 gene expression, Treated DA Neuron” value (Amine transporters, first line for this gene, 4 hours of exposure)?
The value was 426.9.

What about the “ATP1A1 gene expression, Treated DA Neuron” value (Amine transporters, second line for this gene, 4 hours of exposure) of the same compound?
The value was 471.

And the “KCNMB1 gene expression, Treated DA Neuron” value [3]?
Its value is 44.8.

And the “KCNN1 gene expression, Treated DA Neuron” value [3]?
Its value is 48.4.

And the “KCNN2 gene expression, Treated DA Neuron” value [3]?
The value was 55.6.

What about the “KCNN3 gene expression, Treated DA Neuron” value [3] of the same compound?
Its value is 181.7.

What about the “CACNA1A gene expression, Treated DA Neuron” value [4] of the same compound?
The value was 64.4.

And the “CACNA1C gene expression, Treated DA Neuron” value [4]?
Its value is 146.9.

What about the “CACNB2 gene expression, Treated DA Neuron” value [4] of the same compound?
Its value is 155.2.

What about the “CACNG2 gene expression, Treated DA Neuron” value [4] of the same compound?
Its value is 123.8.

What about the “CLCN2 gene expression, Treated DA Neuron” value [5] of the same compound?
The value was 24.

What about the “CLCN3 gene expression, Treated DA Neuron” value [5] of the same compound?
Its value is 541.2.

What about the “CLCN6 gene expression, Treated DA Neuron” value [5] of the same compound?
Its value is 998.5.

What about the “CLCN7 gene expression, Treated DA Neuron” value [5] of the same compound?
The value was 1261.

And the “CLIC1 gene expression, Treated DA Neuron” value [5]?
The value was 22.9.

What about the “KCNA5 gene expression, Treated DA Neuron” value [6] of the same compound?
Its value is 99.9.

What about the “KCNB1 gene expression, Treated DA Neuron” value [6] of the same compound?
Its value is 145.4.

What about the “KCNB2 gene expression, Treated DA Neuron” value [6] of the same compound?
Its value is 94.5.

What about the “ATP5B gene expression, Treated DA Neuron” value [7] of the same compound?
Its value is 5217.1.

And the “ATP6V0A2 gene expression, Treated DA Neuron” value [7]?
Its value is 131.3.

And the “ATP6V0D1 gene expression, Treated DA Neuron” value [7]?
Its value is 2920.7.

And the “ATP6V1A gene expression, Treated DA Neuron” value [7]?
The value was 2621.5.

And the “ATP6V1B2 gene expression, Treated DA Neuron” value [7]?
The value was 724.8.

And the “SLC2A1 gene expression, Treated DA Neuron” value [7]?
Its value is 87.1.

What about the “SLC2A11 gene expression, Treated DA Neuron” value [7] of the same compound?
Its value is “.9”.

And the “SLC35B1 gene expression, Treated DA Neuron” value [7]?
Its value is 1450.4.

And the “KCNC4 gene expression, Treated DA Neuron” value [8]?
The value was 58.7.

What about the “KCND2 gene expression, Treated DA Neuron” value [8] of the same compound?
Its value is 269.9.

What about the “KCNF1 gene expression, Treated DA Neuron” value [8] of the same compound?
Its value is 479.7.

And the “KCNG1 gene expression, Treated DA Neuron” value [8]?
Its value is 351.

What about the “KCNJ4 gene expression, Treated DA Neuron” value [8] of the same compound?
The value was 66.1.

What about the “KCNJ6 gene expression, Treated DA Neuron” value [8] of the same compound?
Its value is 297.7.

What about the “KCNJ11 gene expression, Treated DA Neuron” value [8] of the same compound?
Its value is 44.4.

What about the “KCNQ3 gene expression, Treated DA Neuron” value [8] of the same compound?
Its value is 23.2.

And the “KCNQ2 gene expression, Treated DA Neuron” value (Rectifier K channels, first line for this gene, 4 hours of exposure)?
Its value is 1753.5.

And the “KCNQ2 gene expression, Treated DA Neuron” value (Rectifier K channels, second line for this gene, 4 hours of exposure)?
Its value is 434.4.

What about the “SCN1A gene expression, Treated DA Neuron” value [9] of the same compound?
Its value is 115.6.

What about the “SCN3A gene expression, Treated DA Neuron” value [9] of the same compound?
The value was 60.4.

And the “SCN9A gene expression, Treated DA Neuron” value [9]?
The value was 245.7.

What about the “AFF1 expression, Treated Neuron” value (four hours after exposure) of the same compound?
Its value is 1.

And the “ARID3A expression, Treated Neuron” value (four hours after exposure)?
The value was 201.

And the “ASCL2 expression, Treated Neuron” value (four hours after exposure)?
Its value is 1.

And the “DDIT3 expression, Treated Neuron” value (four hours after exposure)?
Its value is 170.

What about the “DLX2 expression, Treated Neuron” value (four hours after exposure) of the same compound?
Its value is 1.

What about the “E2F2 expression, Treated Neuron” value (four hours after exposure) of the same compound?
The value was 63.2.

What about the “E2F7 expression, Treated Neuron” value (four hours after exposure) of the same compound?
The value was 43.

What about the “E2F8 expression, Treated Neuron” value (four hours after exposure) of the same compound?
Its value is 1.

What about the “EGR1 expression, Treated Neuron” value (four hours after exposure) of the same compound?
The value was 109.

What about the “EGR2 expression, Treated Neuron” value (four hours after exposure) of the same compound?
The value was 1.

What about the “ELF4 expression, Treated Neuron” value (four hours after exposure) of the same compound?
Its value is 1.

What about the “ELF5 expression, Treated Neuron” value (four hours after exposure) of the same compound?
Its value is 1.

What about the “ELK3 expression, Treated Neuron” value (four hours after exposure) of the same compound?
The value was 1.

And the “ELK4 expression, Treated Neuron” value (four hours after exposure)?
The value was 1.

What about the “EN1 expression, Treated Neuron” value (four hours after exposure) of the same compound?
Its value is 1.

What about the “ERG expression, Treated Neuron” value (four hours after exposure) of the same compound?
Its value is 1.

What about the “ETS1 expression, Treated Neuron” value (four hours after exposure) of the same compound?
Its value is 1.

What about the “ETV1 expression, Treated Neuron” value (four hours after exposure) of the same compound?
Its value is 1.

What about the “ETV4 expression, Treated Neuron” value (four hours after exposure) of the same compound?
Its value is 1.

What about the “FLI1 expression, Treated Neuron” value (four hours after exposure) of the same compound?
Its value is 11.3.

What about the “FOS expression, Treated Neuron” value (four hours after exposure) of the same compound?
Its value is 1980.

And the “FOSB expression, Treated Neuron” value (four hours after exposure)?
The value was 346.

And the “FOXA2 expression, Treated Neuron” value (four hours after exposure)?
The value was 1.

And the “FOXC1 expression, Treated Neuron” value (four hours after exposure)?
Its value is 32.6.

What about the “FOXD1 expression, Treated Neuron” value (four hours after exposure) of the same compound?
The value was 1.

What about the “FOXF2 expression, Treated Neuron” value (four hours after exposure) of the same compound?
The value was 1.

And the “FOXL2 expression, Treated Neuron” value (four hours after exposure)?
The value was 1.

And the “FOXM1 expression, Treated Neuron” value (four hours after exposure)?
Its value is 27.7.

And the “GATA2 expression, Treated Neuron” value (four hours after exposure)?
Its value is 1.

And the “GLI2 expression, Treated Neuron” value (four hours after exposure)?
Its value is 5.2.

What about the “HCLS1 expression, Treated Neuron” value (four hours after exposure) of the same compound?
The value was 1.

What about the “HEY2 expression, Treated Neuron” value (four hours after exposure) of the same compound?
The value was 1.

And the “HIRA expression, Treated Neuron” value (four hours after exposure)?
The value was 24.2.

What about the “HMGB2 expression, Treated Neuron” value (four hours after exposure) of the same compound?
Its value is 163.

What about the “HOXA13 expression, Treated Neuron” value (four hours after exposure) of the same compound?
The value was 1.

What about the “HOXB1 expression, Treated Neuron” value (four hours after exposure) of the same compound?
Its value is 1.

What about the “HOXB2 expression, Treated Neuron” value (four hours after exposure) of the same compound?
Its value is 24.

And the “HOXB3 expression, Treated Neuron” value (four hours after exposure)?
The value was 1.

And the “HOXB4 expression, Treated Neuron” value (four hours after exposure)?
The value was 1.

What about the “HOXB5 expression, Treated Neuron” value (four hours after exposure) of the same compound?
The value was 1.

And the “HOXD3 expression, Treated Neuron” value (four hours after exposure)?
The value was 1.

And the “L3MBTL expression, Treated Neuron” value (four hours after exposure)?
Its value is 97.7.

What about the “LHX8 expression, Treated Neuron” value (four hours after exposure) of the same compound?
The value was 1.

And the “MEF2C expression, Treated Neuron” value (four hours after exposure)?
Its value is 49.8.

And the “MEOX1 expression, Treated Neuron” value (four hours after exposure)?
The value was 1.

What about the “MSX2 expression, Treated Neuron” value (four hours after exposure) of the same compound?
Its value is 1.

What about the “MYEF2 expression, Treated Neuron” value (four hours after exposure) of the same compound?
The value was 25.3.

And the “NFATC3 expression, Treated Neuron” value (four hours after exposure)?
The value was 1.

What about the “NFATC4 expression, Treated Neuron” value (four hours after exposure) of the same compound?
The value was 1.

What about the “NFKB2 expression, Treated Neuron” value (four hours after exposure) of the same compound?
The value was 5.3.

What about the “NR1D2 expression, Treated Neuron” value (four hours after exposure) of the same compound?
Its value is 1.

What about the “NR2C2 expression, Treated Neuron” value (four hours after exposure) of the same compound?
The value was 5.7.

And the “NR4A2 expression, Treated Neuron” value (four hours after exposure)?
The value was 212.

What about the “NRK expression, Treated Neuron” value (four hours after exposure) of the same compound?
Its value is 1.

What about the “PAX8 expression, Treated Neuron” value (four hours after exposure) of the same compound?
Its value is 1.

What about the “PBX2 expression, Treated Neuron” value (four hours after exposure) of the same compound?
Its value is 1.

What about the “PRDM1 expression, Treated Neuron” value (four hours after exposure) of the same compound?
The value was 1.

And the “PRRX2 expression, Treated Neuron” value (four hours after exposure)?
Its value is 1.

And the “RELB expression, Treated Neuron” value (four hours after exposure)?
Its value is 31.9.

What about the “RUNX1 expression, Treated Neuron” value (four hours after exposure) of the same compound?
Its value is 1.

What about the “SALL1 expression, Treated Neuron” value (four hours after exposure) of the same compound?
The value was 1.

What about the “SIX4 expression, Treated Neuron” value (four hours after exposure) of the same compound?
Its value is 5.7.

And the “STAT6 expression, Treated Neuron” value (four hours after exposure)?
Its value is 1.

What about the “TAF5L expression, Treated Neuron” value (four hours after exposure) of the same compound?
Its value is 17.5.

What about the “TAF13 expression, Treated Neuron” value (four hours after exposure) of the same compound?
The value was 1.

What about the “TBX2 expression, Treated Neuron” value (four hours after exposure) of the same compound?
Its value is 1.

And the “TEAD4 expression, Treated Neuron” value (four hours after exposure)?
Its value is 1.

What about the “TEF expression, Treated Neuron” value (four hours after exposure) of the same compound?
Its value is 23.5.

And the “TGIF1 expression, Treated Neuron” value (four hours after exposure)?
The value was 1.

What about the “TP53 expression, Treated Neuron” value (four hours after exposure) of the same compound?
The value was 23.7.

And the “ZNF85 expression, Treated Neuron” value (four hours after exposure)?
The value was 5.6.

What about the “ZNF197 expression, Treated Neuron” value (four hours after exposure) of the same compound?
Its value is 5.1.

What about the “ZNF274 expression, Treated Neuron” value (four hours after exposure) of the same compound?
Its value is 1.

What about the “ZNF367 expression, Treated Neuron” value (four hours after exposure) of the same compound?
The value was 1.

And the “ZSCAN29 expression, Treated Neuron” value (four hours after exposure)?
The value was 1.

Reference: patent US20120244567A1, “HUMAN EMBRYONIC STEM CELLS FOR HIGH THROUGHOUT DRUG SCREENING” (BUCK INSTITUTE FOR RESEARCH ON AGING, priority 2009, published 2012)
